Laboratory results as given in ChEMBL document CHEMBL5143740, “Discovery of Novel Phosphoinositide-3-Kinase α Inhibitors with High Selectivity, Excellent Bioavailability, and Long-Acting Efficacy for Gastric Cancer” (J Med Chem, 2022).
The source made the active and inactive calls. No cut-off for these calls is given here.

System: MGC-803
Test: Antitumor activity against human MGC-803 cells xenografted in BALB/c nude mouse assessed as reduction in tumor volume at 10 mg/kg, ip administered every day for 3 weeks by vernier caliper method
Format: functional, organism-based
Details: not given

| SMILES | Activity |
| --- | --- |
| CC(=O)O[C@H]1C(=O)[C@@]2(C)[C@H]([C@H](OC(=O)c3ccccc3)[C@]3(O)C[C@H](OC(=O)[C@H](O)[C@@H](NC(=O)c4ccccc4)c4ccccc4)C(C)=C1C3(C)C)[C@]1(OC(C)=O)CO[C@@H]1C[C@@H]2O [PACLITAXEL] | Active |

Target: Phosphatidylinositol 4,5-bisphosphate 3-kinase catalytic subunit gamma isoform (Homo sapiens, UniProt P48736)
Details: not given

Phosphatidylinositol 4,5-bisphosphate 3-kinase catalytic subunit gamma isoform, sequence (P48736 whole entry, canonical isoform): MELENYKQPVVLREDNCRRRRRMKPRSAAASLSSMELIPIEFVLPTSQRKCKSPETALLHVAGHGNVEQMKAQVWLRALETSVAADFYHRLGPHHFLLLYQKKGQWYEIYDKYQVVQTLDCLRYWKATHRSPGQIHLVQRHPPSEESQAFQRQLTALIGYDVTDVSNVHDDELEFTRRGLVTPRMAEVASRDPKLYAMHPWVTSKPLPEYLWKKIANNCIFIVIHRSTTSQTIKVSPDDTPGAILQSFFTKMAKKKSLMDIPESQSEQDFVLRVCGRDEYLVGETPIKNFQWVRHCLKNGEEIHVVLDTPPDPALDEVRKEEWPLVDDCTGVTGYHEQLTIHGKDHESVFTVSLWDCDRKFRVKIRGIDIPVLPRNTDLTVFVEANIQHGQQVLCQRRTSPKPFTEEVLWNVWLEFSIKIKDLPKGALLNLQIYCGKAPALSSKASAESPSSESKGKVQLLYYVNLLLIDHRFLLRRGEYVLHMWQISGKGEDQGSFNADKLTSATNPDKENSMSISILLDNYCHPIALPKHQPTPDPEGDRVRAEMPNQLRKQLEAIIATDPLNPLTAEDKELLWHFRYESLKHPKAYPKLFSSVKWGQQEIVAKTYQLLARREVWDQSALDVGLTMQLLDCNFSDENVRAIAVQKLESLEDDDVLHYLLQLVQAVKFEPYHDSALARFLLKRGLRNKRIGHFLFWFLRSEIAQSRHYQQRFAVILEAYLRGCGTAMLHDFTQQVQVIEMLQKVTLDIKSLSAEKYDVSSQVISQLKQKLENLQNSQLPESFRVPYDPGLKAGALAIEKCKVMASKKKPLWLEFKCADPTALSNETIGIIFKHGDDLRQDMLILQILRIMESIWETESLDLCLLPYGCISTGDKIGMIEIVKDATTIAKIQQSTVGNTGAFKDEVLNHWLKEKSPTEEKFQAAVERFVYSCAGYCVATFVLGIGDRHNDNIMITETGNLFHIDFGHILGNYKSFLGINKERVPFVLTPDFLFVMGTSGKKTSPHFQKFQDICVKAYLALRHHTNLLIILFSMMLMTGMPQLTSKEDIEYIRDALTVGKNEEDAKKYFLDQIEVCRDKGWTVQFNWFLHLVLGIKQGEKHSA

| IC50 [nM] | SMILES |
| --- | --- |
| 3490 | O=C(O)c1ccc(CNc2nc3ccc(-c4nc(N5CCOCC5)nc(N5CCOCC5)n4)cc3o2)cc1 |

Target: Phosphatidylinositol 4,5-bisphosphate 3-kinase catalytic subunit alpha isoform (Homo sapiens, UniProt P42336)
Test: Inhibition of PI3Kalpha (unknown origin) using PIP2 as substrate in presence of ATP measured after 1 hr by ADP-Glo assay
Details: not given

Phosphatidylinositol 4,5-bisphosphate 3-kinase catalytic subunit alpha isoform, sequence (P42336 whole entry, canonical isoform): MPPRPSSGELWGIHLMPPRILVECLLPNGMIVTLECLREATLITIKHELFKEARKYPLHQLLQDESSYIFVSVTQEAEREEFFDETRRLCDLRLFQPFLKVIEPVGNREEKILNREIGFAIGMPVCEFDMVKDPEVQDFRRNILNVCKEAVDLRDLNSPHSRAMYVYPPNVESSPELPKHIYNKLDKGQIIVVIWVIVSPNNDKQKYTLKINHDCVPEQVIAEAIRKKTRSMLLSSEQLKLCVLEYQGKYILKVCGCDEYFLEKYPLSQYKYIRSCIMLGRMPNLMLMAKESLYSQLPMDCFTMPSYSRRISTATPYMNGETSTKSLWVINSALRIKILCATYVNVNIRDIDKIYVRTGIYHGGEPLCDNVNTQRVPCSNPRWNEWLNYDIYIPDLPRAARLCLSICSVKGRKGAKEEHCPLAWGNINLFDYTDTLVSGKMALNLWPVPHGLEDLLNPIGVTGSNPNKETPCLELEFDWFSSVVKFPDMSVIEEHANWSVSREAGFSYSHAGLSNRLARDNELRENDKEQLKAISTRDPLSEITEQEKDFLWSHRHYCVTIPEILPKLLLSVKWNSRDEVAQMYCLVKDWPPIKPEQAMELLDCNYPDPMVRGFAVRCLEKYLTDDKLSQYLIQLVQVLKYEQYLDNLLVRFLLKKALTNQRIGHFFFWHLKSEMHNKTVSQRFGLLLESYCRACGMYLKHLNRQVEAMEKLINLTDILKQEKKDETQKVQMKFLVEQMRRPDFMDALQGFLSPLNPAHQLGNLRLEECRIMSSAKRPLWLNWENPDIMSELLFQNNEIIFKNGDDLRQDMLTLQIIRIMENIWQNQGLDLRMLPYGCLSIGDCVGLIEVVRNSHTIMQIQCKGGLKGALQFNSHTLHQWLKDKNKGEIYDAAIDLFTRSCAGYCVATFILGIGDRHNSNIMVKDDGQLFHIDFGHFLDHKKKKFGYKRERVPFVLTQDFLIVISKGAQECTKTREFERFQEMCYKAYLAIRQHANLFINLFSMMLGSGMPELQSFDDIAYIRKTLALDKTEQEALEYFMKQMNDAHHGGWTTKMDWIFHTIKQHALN

| SMILES | IC50 [nM] |
| --- | --- |
| CC(=O)N1CCN(c2nc(-c3ccc4nc(N)oc4c3)nc(N3CCN(C(C)=O)CC3)n2)CC1 | > 10000 |
| CN(C)c1nc2ccc(-c3nc(N4CCOCC4)nc(N4CCN(S(C)(=O)=O)CC4)n3)cc2s1 | > 10000 |
| Nc1nc2ccc(-c3nc(N4CCOCC4)nc(N4CCC(C(F)(F)F)CC4)n3)cc2s1 | 5360 |
| Nc1nc2cc(-c3nc(NC4CCOCC4)nc(N4CCOCC4)n3)ccc2o1 | 4240 |
| CC(=O)N1CCN(c2nc(-c3ccc4nc(N)sc4c3)nc(N3CCOCC3)n2)CC1 | 497 |
| Nc1nc2cc(-c3nc(NC4CCC(C(F)(F)F)CC4)nc(N4CCOCC4)n3)ccc2o1 (stereo not drawn) | 703 |
| CC(=O)N1CCN(c2nc(-c3ccc4nc(NCc5ccc(C(=O)O)cc5)oc4c3)nc(N3CCN(C(C)=O)CC3)n2)CC1 | > 10000 |
| CC(C)(C)OC(=O)N1CCN(c2nc(-c3ccc4oc(N)nc4c3)nc(N3CCOCC3)n2)CC1 | 259 |
| O=C(O)c1ccc(CNc2nc3ccc(-c4nc(N5CCOCC5)nc(N5CCOCC5)n4)cc3o2)cc1 | 6 |
| COC(=O)c1ccc(CNc2nc3ccc(-c4nc(N5CCN(C(C)=O)CC5)nc(N5CCN(C(C)=O)CC5)n4)cc3o2)cc1 | > 10000 |
| CN(C)c1nc2ccc(-c3nc(N4CCNCC4)nc(N4CCOCC4)n3)cc2s1 | > 10000 |
| CC(C)(C)OC(=O)N1CCN(c2nc(-c3ccc4nc(N)sc4c3)nc(N3CCOCC3)n2)CC1 | 432 |
| Nc1nc2cc(-c3nc(Nc4cccc(C(F)(F)F)c4)nc(N4CCOCC4)n3)ccc2o1 | 1410 |
| CN(C)c1nc2ccc(-c3nc(Nc4ccc(C(F)(F)F)cc4)nc(N4CCOCC4)n3)cc2s1 | > 10000 |
| CS(=O)(=O)N1CCN(c2nc(-c3ccc4nc(N)oc4c3)nc(N3CCN(S(C)(=O)=O)CC3)n2)CC1 | > 10000 |
| FC(F)(F)c1ccc(CNc2nc3cc(-c4nc(N5CCOCC5)nc(N5CCOCC5)n4)ccc3o2)cc1 | 300 |
| Nc1nc2ccc(-c3nc(Nc4ccc5c(c4)OCO5)nc(Nc4ccc5c(c4)OCO5)n3)cc2o1 | > 10000 |

Next, values leading:

| IC50 [nM] | SMILES |
| --- | --- |
| 81 | COc1ccc(CNc2nc3cc(-c4nc(N5CCOCC5)nc(N5CCOCC5)n4)ccc3o2)cc1 |
| 99 | COC(=O)c1ccc(CNc2nc3cc(-c4nc(N5CCOCC5)nc(N5CCOCC5)n4)ccc3o2)cc1 |
| 72 | O=[N+]([O-])c1ccc(CNc2nc3cc(-c4nc(N5CCOCC5)nc(N5CCOCC5)n4)ccc3o2)cc1 |
| 66 | CC(=O)Nc1nc2cc(-c3nc(N4CCOCC4)nc(N4CCOCC4)n3)ccc2o1 |
| 311 | CC(C)c1ccc(CNc2nc3cc(-c4nc(N5CCOCC5)nc(N5CCOCC5)n4)ccc3o2)cc1 |
| 2220 | CN(C)c1nc2cc(-c3nc(N4CCOCC4)nc(N4CCOCC4)n3)ccc2o1 |
| 23 | CC(=O)N1CCN(c2nc(-c3ccc4oc(N)nc4c3)nc(N3CCOCC3)n2)CC1 |
| 598 | CCN1CCN(c2nc(-c3ccc4oc(N)nc4c3)nc(N3CCOCC3)n2)CC1 |
| 2820 | c1cc2oc(NC3CCCC3)nc2cc1-c1nc(N2CCOCC2)nc(N2CCOCC2)n1 |
| 2770 | CC(C)Nc1nc2cc(-c3nc(N4CCOCC4)nc(N4CCOCC4)n3)ccc2o1 |
| 63 | c1ccc(CNc2nc3cc(-c4nc(N5CCOCC5)nc(N5CCOCC5)n4)ccc3o2)cc1 |
| 397 | CC(C)C(=O)Nc1nc2cc(-c3nc(N4CCOCC4)nc(N4CCOCC4)n3)ccc2o1 |
| 7450 | O=C(Nc1nc2cc(-c3nc(N4CCOCC4)nc(N4CCOCC4)n3)ccc2o1)C1CCCCC1 |
| 1050 | CC(C)N1CCN(c2nc(-c3ccc4oc(N)nc4c3)nc(N3CCOCC3)n2)CC1 |
| 47 | NC(=O)c1ccc(CNc2nc3cc(-c4nc(N5CCOCC5)nc(N5CCOCC5)n4)ccc3o2)cc1 |
| 32 | CS(=O)(=O)N1CCN(c2nc(-c3ccc4oc(N)nc4c3)nc(N3CCOCC3)n2)CC1 |
| 357 | Nc1nc2ccc(-c3nc(N4CCOCC4)nc(N4CCOCC4)n3)cc2s1 |
| 8750 | CC(=O)Nc1nc2ccc(-c3nc(N4CCOCC4)nc(N4CCOCC4)n3)cc2s1 |
| > 10000 | CN(C)c1nc2ccc(-c3nc(N4CCOCC4)nc(N4CCOCC4)n3)cc2s1 |
| 569 | Nc1nc2cc(-c3nc(N4CCNCC4)nc(N4CCOCC4)n3)ccc2o1 |
| 86 | N#Cc1ccc(CNc2nc3cc(-c4nc(N5CCOCC5)nc(N5CCOCC5)n4)ccc3o2)cc1 |

System: MGC-803
Test: Antiproliferative activity against human MGC-803 cells assessed as inhibition of cell growth incubated for 72 hrs by CCK8 assay
Format: functional, cell-based
Details: MGC-803, 72 h

| IC50 [nM] | SMILES |
| --- | --- |
| 430 | Cc1nc(NC(=O)N2CCC[C@H]2C(N)=O)sc1-c1ccnc(C(C)(C)C(F)(F)F)c1 [ALPELISIB] |

Target: Phosphatidylinositol 4,5-bisphosphate 3-kinase catalytic subunit beta isoform (Homo sapiens, UniProt P42338)
Test: Inhibition of PI3Kbeta (unknown origin) in presence of [33P]-ATP incubated for 2 hrs by hotspot kinase assay
Details: not given

Phosphatidylinositol 4,5-bisphosphate 3-kinase catalytic subunit beta isoform, sequence (P42338 whole entry, canonical isoform): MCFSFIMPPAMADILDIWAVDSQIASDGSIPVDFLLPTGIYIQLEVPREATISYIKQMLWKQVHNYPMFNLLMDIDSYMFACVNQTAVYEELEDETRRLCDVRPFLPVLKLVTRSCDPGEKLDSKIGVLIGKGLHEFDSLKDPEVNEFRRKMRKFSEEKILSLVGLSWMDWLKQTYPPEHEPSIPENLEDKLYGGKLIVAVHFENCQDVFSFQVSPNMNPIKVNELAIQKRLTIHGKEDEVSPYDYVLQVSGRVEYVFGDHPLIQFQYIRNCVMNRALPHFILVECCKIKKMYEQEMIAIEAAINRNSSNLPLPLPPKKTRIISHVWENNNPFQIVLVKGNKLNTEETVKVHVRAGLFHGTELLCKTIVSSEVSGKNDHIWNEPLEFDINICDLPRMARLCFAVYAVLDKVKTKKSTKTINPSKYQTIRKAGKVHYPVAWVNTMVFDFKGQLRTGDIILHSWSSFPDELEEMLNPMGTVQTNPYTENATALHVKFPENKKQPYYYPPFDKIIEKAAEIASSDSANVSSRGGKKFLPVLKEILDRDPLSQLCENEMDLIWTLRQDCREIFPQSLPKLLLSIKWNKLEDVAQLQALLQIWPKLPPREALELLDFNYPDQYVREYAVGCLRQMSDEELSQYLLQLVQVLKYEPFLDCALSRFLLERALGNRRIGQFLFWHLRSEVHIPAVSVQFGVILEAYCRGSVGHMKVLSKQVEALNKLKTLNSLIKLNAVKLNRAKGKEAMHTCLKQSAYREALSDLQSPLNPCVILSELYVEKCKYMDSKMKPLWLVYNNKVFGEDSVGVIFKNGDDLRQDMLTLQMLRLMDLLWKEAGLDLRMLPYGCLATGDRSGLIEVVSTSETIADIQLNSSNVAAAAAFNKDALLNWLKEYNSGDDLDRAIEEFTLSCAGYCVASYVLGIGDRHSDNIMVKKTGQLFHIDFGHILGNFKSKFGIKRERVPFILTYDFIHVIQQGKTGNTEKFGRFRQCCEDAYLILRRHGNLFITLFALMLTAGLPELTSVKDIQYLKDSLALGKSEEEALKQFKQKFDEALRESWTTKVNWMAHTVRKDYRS

| IC50 [nM] | SMILES |
| --- | --- |
| 100 | O=C(O)c1ccc(CNc2nc3ccc(-c4nc(N5CCOCC5)nc(N5CCOCC5)n4)cc3o2)cc1 |

System: MCF7
Test: Antiproliferative activity against human MCF7 cells assessed as inhibition of cell growth incubated for 72 hrs by CCK8 assay
Format: functional, cell-based
Details: MCF7, 72 h

| IC50 [nM] | SMILES |
| --- | --- |
| 430 | Cc1nc(NC(=O)N2CCC[C@H]2C(N)=O)sc1-c1ccnc(C(C)(C)C(F)(F)F)c1 [ALPELISIB] |

Species: Homo sapiens
Test: Selectivity index, ratio of IC50 for inhibition of PI3Kdelta (unknown origin) to IC50 for inhibition of PI3Kalpha (unknown origin)
Details: not given

| Ratio IC50 | SMILES |
| --- | --- |
| 8.5 | O=C(O)c1ccc(CNc2nc3ccc(-c4nc(N5CCOCC5)nc(N5CCOCC5)n4)cc3o2)cc1 |

System: MGC-803
Test: Antitumor activity against human MGC-803 cells xenografted in BALB/c nude mouse assessed as tumor growth inhibition at 30 mg/kg, po administered every day for 3 weeks
Format: functional
Details: MGC-803, 504 h, read-out: TGI

| SMILES | inhibition in vivo at 30 mg/kg [%] |
| --- | --- |
| CC(=O)O[C@H]1C(=O)[C@@]2(C)[C@H]([C@H](OC(=O)c3ccccc3)[C@]3(O)C[C@H](OC(=O)[C@H](O)[C@@H](NC(=O)c4ccccc4)c4ccccc4)C(C)=C1C3(C)C)[C@]1(OC(C)=O)CO[C@@H]1C[C@@H]2O [PACLITAXEL] | 60.3 |

Target: T1, Phosphatidylinositol 4,5-bisphosphate 3-kinase catalytic subunit delta isoform (Homo sapiens, UniProt O00329)
T1 sequence (O00329 whole entry): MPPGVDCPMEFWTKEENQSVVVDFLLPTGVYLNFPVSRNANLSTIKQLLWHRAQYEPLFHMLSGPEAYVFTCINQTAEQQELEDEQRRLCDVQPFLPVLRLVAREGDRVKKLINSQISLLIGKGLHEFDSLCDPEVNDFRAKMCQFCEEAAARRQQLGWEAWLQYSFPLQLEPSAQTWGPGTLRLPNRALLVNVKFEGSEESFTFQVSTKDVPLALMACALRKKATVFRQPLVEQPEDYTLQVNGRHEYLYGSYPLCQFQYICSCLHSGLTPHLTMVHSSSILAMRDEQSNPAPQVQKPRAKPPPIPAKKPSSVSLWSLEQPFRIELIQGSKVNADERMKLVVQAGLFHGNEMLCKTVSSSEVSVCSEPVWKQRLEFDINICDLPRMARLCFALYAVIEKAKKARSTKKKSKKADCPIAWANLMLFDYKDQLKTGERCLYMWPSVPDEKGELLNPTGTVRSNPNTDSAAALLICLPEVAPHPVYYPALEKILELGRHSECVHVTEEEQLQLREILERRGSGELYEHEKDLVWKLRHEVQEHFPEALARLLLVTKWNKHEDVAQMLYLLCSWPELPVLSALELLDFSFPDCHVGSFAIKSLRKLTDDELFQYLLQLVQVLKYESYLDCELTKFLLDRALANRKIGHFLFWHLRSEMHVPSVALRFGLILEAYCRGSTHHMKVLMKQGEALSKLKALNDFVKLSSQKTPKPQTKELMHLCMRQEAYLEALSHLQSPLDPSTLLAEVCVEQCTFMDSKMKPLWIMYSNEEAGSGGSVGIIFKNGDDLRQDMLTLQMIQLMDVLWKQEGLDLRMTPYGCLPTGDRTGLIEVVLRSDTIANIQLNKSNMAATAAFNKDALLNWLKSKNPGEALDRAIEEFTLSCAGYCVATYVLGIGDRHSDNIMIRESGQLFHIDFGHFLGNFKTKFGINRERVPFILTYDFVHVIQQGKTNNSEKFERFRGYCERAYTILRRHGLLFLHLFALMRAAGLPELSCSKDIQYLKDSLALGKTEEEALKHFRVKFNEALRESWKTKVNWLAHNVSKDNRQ
Test: Inhibition of PI3Kdelta (unknown origin) in presence of [33P]-ATP incubated for 2 hrs by hotspot kinase assay
Details: not given

| IC50 [nM] | SMILES |
| --- | --- |
| 51 | O=C(O)c1ccc(CNc2nc3ccc(-c4nc(N5CCOCC5)nc(N5CCOCC5)n4)cc3o2)cc1 |

Species: Homo sapiens
Test: Selectivity index, ratio of IC50 for inhibition of PI3Kgamma (unknown origin) to IC50 for inhibition of PI3Kalpha (unknown origin)
Details: not given

| Ratio IC50 | SMILES |
| --- | --- |
| 581 | O=C(O)c1ccc(CNc2nc3ccc(-c4nc(N5CCOCC5)nc(N5CCOCC5)n4)cc3o2)cc1 |

Species: Homo sapiens
Test: Selectivity index, ratio of IC50 for inhibition of PI3Kbeta (unknown origin) to IC50 for inhibition of PI3Kalpha (unknown origin)
Details: not given

| Ratio IC50 | SMILES |
| --- | --- |
| 16 | O=C(O)c1ccc(CNc2nc3ccc(-c4nc(N5CCOCC5)nc(N5CCOCC5)n4)cc3o2)cc1 |
